# In patent US20240101576A1, “HETEROCYCLIC INHIBITORS OF EGFR AND/OR HER2, FOR USE IN THE TREATMENT OF CANCER” (Scorpion Therapeutics, Inc., priority 2020, published 2024):
# Experiments:
# Type in all cases: cell-based
# EGFR L858R (Ba/F3 cells) [1] = molecular target: T1, EGFR L858R (Ba/F3 cells) (Homo sapiens, UniProt P00533, L858R); test: Inhibitor activity on EGFR-dependent cell growth (CellTiter-Glo, 72 h), Ba/F3 EGFR L858R; details: read-out: BaF3 L858R IC50
# T1 construct: expressed in transfected cells; host or cells: Ba/F3 (murine pro-B cells), retroviral transduction, puromycin selection, IL3-independent pool
# T1 sequence (P00533 25-1210 L858R): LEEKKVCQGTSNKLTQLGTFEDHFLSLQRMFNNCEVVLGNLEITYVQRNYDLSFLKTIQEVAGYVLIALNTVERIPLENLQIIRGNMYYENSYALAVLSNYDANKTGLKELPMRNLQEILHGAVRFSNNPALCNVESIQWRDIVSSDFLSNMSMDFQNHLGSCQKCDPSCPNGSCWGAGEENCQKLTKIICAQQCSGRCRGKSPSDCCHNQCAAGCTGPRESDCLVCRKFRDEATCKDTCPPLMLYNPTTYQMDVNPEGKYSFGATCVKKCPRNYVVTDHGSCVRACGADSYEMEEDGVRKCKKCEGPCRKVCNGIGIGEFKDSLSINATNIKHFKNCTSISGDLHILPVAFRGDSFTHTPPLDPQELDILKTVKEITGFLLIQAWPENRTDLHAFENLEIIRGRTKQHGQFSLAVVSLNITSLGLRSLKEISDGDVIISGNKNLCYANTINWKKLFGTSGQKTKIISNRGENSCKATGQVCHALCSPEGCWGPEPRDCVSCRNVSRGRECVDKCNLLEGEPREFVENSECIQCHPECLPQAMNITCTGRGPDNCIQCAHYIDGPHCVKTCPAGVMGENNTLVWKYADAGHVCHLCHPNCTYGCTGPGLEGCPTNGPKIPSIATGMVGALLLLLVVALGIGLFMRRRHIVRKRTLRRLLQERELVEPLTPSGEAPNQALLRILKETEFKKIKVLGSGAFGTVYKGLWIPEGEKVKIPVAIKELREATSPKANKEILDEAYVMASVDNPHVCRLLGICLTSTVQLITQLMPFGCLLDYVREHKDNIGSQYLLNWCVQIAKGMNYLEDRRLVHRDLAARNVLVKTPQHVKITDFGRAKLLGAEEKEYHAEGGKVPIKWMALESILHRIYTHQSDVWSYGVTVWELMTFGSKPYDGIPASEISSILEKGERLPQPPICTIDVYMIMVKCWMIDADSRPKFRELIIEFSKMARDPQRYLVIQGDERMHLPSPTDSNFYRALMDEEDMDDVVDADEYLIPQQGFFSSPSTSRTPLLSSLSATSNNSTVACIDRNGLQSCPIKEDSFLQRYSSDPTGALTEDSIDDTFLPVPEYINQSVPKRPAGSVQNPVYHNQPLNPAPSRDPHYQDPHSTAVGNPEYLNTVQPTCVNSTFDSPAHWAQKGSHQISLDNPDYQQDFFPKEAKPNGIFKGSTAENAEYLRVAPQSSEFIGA
# Outline: (§1)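 IC50s derive from a sigmoidal dose–response fit of CellTiter-Glo signal. The signal was normalised between […]-treated cells and cell-free medium. Ba/F3 mutant-EGFR cells, seeded at 400–800/well depending on the line, had 72 h of exposure to a 10-point, 3-fold compound series.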
# EGFR L858R (Ba/F3 cells) [2] = molecular target: T1, EGFR L858R (Ba/F3 cells); test: Inhibitor activity on EGFR phosphorylation (pEGFR AlphaLISA, 2 h), Ba/F3 EGFR L858R
# From the text: (§2) Example B. Inhibitor Activity on EGFR phosphorylation (pEGFR)
# (§3) EGFR mutant Ba/F3 cells were generated by transduction with retrovirus containing vectors expressing EGFR L858R, EGFR exon 19del, EGFR L858R/C797S, EGFR exon 20 NPG Ins D770_N771, EGFR exon 20 ASV Ins V769_D770, or EGFR exon 20 SVD Ins D770_N771 genes along with a puromycin selection marker. Transduced cells are selected with puromycin for 7 days and are then be transferred into culture media without Interleukin 3 (IL3). Surviving cells are confirmed to express EGFR by Western blot and maintained as a pool. CUTO14 cells were obtained from Dr. Robert C. Doebele at the University of Colorado. The IC50 date are included in Table 6 and Table 7.
# (§4) 1.1 Cells are harvested from flask into cell culture medium and the cell number counted.
# (§5) 1.2 Cells are diluted with culture medium to the desired density and 40 μL of cell suspension is added into each well of 384-well cell culture plate and the seeding density is 50K cells/well (Ba/F3) or 12.5K cells/well (CUTO14).
# (§6) 2 Compound Preparation and Treatment
# (§7) 2.1 Test compounds are dissolved to 10 mM in a DMSO stock solution. 45 μL of stock solution is transferred to a 384 polypropylene plate (pp-plate). Perform 3-fold, 10-point dilution via transferring 15 μL compound into 30 μL DMSO using a TECAN (EVO200) liquid handler.
# (§8) 2.2 Spin plates at room temperature at 1,000 RPM for 1 minute.
# (§9) 2.3 Transfer 5 nL of diluted compound from compound source plate into the cell plate.
# (§10) 2.4 After compound treatment for 2 hours, perform pEGFR detection by AlphaLISA for compound treatment plates as described in “Detection” section.
# (§11) 3 Detection by pEGFR AlphaLISA (Perkin-Elmer)
# (§12) 3.1 Plates are removed from incubators and equilibrated at room temperature for 10 minutes, and media was removed
# (§13) 3.2 10 μL of lysis buffer is added and plates shaken at 600 rpm for 1 hr.
# (§14) 3.3 Prepare acceptor mix just before use and dispense 5 μL of acceptor mix to all the wells. Shake 350 rpm for Ihr in the dark
# (§15) 3.4 Prepare donor mix under low light conditions prior to use. Dispense 5 μL of donor mix to all the wells. Mix well on the shaker, seal and wrap in aluminum foil and incubate 1.5 hrs at room temperature in the dark
# (§16) 3.5 Transfer 18.5 μL mixture to OptiPlate 384, and read using an Envision. The IC50 date were included in Table 6 and Table 7.
# [3] = molecular target: T2, EGFR L858R/C797S (Ba/F3 cells) (Homo sapiens, UniProt P00533, C797S/L858R); test: Inhibitor activity on EGFR phosphorylation (pEGFR AlphaLISA, 2 h), Ba/F3 EGFR L858R/C797S
# T2 construct: expressed in transfected cells; host or cells: Ba/F3 (murine pro-B cells), retroviral transduction, puromycin selection, IL3-independent pool
# T2 sequence (P00533 25-1210 C797S/L858R): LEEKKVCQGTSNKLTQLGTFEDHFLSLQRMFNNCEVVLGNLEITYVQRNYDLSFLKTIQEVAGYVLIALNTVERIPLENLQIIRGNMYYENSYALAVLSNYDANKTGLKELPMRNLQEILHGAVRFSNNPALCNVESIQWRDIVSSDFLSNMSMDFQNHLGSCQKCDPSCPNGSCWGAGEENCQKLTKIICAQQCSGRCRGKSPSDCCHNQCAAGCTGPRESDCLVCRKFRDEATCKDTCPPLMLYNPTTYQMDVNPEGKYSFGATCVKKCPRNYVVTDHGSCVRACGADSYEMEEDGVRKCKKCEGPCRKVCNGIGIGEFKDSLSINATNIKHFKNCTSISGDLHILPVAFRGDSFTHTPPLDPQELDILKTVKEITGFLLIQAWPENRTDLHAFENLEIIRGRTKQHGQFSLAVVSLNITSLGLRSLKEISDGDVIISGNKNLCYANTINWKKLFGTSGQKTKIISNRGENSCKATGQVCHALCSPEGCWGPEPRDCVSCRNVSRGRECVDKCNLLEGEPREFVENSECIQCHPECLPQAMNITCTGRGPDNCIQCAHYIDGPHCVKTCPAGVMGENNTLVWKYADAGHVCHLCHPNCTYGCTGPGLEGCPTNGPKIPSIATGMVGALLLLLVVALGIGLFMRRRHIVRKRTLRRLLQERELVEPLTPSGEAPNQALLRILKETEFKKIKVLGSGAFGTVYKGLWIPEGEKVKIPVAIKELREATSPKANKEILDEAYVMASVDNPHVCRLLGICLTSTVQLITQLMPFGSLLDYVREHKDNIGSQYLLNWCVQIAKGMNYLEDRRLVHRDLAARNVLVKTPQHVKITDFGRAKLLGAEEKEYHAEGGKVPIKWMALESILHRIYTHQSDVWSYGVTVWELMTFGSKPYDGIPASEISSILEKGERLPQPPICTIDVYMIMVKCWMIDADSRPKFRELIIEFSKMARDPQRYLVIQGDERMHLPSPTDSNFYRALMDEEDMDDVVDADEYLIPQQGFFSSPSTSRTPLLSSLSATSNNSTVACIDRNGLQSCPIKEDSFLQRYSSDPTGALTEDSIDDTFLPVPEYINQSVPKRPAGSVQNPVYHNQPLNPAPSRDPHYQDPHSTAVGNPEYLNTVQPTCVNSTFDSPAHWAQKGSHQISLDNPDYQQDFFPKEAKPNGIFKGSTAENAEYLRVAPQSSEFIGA
# Outline: (§17)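 Cellular EGFR autophosphorylation assay. IL3-independent Ba/F3 transductants or CUTO14 cells are incubated with serially diluted compound (3-fold, 10 points) for 2 h, then lysed and pEGFR quantified by AlphaLISA.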
# [4] = molecular target: T3, EGFR exon 19del (Ba/F3 cells) (Homo sapiens, UniProt P00533); test: Inhibitor activity on EGFR phosphorylation (pEGFR AlphaLISA, 2 h), Ba/F3 EGFR exon 19del; details: read-out: Del19 IC50 (pEGFR)
# T3 sequence (P00533 with tags, fused parts or gaps DEL746-750): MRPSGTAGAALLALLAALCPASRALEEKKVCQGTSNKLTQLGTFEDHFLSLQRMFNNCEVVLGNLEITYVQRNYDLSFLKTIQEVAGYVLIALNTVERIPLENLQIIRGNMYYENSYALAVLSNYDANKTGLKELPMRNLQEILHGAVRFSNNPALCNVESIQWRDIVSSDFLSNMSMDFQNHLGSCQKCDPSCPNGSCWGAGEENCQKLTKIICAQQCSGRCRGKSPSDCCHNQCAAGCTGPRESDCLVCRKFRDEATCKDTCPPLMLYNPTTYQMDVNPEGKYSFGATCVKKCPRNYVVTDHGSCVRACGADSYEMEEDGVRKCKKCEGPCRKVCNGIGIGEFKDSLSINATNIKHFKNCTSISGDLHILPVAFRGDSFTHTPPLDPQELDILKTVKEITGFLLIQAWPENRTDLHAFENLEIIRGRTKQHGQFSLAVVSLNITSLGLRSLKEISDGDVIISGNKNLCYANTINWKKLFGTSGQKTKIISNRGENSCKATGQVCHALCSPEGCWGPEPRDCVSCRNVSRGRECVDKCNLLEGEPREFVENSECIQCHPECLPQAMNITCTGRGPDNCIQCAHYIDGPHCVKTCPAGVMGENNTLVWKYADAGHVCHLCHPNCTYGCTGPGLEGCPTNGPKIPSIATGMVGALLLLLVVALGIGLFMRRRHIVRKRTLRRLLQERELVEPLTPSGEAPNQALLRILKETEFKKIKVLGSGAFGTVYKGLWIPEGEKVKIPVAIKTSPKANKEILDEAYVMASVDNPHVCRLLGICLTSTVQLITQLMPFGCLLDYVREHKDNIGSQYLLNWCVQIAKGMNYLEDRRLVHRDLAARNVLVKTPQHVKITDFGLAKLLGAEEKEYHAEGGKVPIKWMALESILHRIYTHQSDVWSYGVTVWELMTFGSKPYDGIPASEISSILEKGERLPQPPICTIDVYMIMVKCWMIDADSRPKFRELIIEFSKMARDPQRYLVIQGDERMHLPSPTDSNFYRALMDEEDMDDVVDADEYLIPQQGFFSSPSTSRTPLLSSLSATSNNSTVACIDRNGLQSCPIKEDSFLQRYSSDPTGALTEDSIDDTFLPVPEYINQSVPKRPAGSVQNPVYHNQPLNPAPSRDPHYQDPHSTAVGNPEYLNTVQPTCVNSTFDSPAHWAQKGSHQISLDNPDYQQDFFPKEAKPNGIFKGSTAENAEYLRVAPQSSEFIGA
# From the text: as §2, §3, §4, §5, §6, §7, §8, §9, §10, §11, §12, §13, §14, §15, §16
# EGFR (CUTO14 cells) = EGFR (CUTO14 cells) (Homo sapiens, UniProt P00533); test: Inhibitor activity on EGFR phosphorylation (pEGFR AlphaLISA, 2 h), CUTO14 cells
# From the text: as §2, §3, §4, §5, §6, §7, §8, §9, §10, §11, §12, §13, §14, §15, §16
# [5] = molecular target: T2, EGFR L858R/C797S (Ba/F3 cells); test: Inhibitor activity on EGFR-dependent cell growth (CellTiter-Glo, 72 h), Ba/F3 EGFR L858R/C797S; details: read-out: BaF3 L858R/C797S IC50
# Outline: as §1
# [6] = molecular target: T3, EGFR exon 19del (Ba/F3 cells); test: Inhibitor activity on EGFR-dependent cell growth (CellTiter-Glo, 72 h), Ba/F3 EGFR exon 19del; details: Ba/F3 EGFR exon 19del cell growth, read-out: BaF3 Del19 IC50
# Outline: as §1
# [7] = molecular target: T4, EGFR exon 20 NPG Ins D770_N771 (Ba/F3 cells) (Homo sapiens, UniProt P00533, INS770NPG); test: Inhibitor activity on EGFR-dependent cell growth (CellTiter-Glo, 72 h), Ba/F3 EGFR exon 20 NPG Ins; details: read-out: BaF3 NPG IC50
# T4 construct: expressed in transfected cells; host or cells: Ba/F3 (murine pro-B cells), retroviral transduction, puromycin selection, IL3-independent pool
# Outline: as §1
# EGFR WT (Ba/F3 cells) = molecular target: T5, EGFR WT (Ba/F3 cells) (Homo sapiens, UniProt P00533); test: Inhibitor activity on EGFR-dependent cell growth (CellTiter-Glo, 72 h), Ba/F3 EGFR WT; details: read-out: BaF3 WT IC50
# T5 construct: expressed in transfected cells; host or cells: Ba/F3 (murine pro-B cells), retroviral transduction, puromycin selection, maintained with EGF
# Outline: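 This growth assay used Ba/F3 cells that depend on wild-type EGFR and are kept in EGF without IL3. Compounds were made up as 10 mM DMSO stocks and diluted 3-fold over 10 points. 120 nL went onto 600 cells/well. After 72 hours, 40 μL CellTiter-Glo was added and luminescence read on EnVision after 30 min.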
# [8] = molecular target: T6, EGFR exon 20 FQEA Ins A763_V764 (Ba/F3 cells) (Homo sapiens, UniProt P00533, INS763FQEA); test: Inhibitor activity on EGFR-dependent cell growth (CellTiter-Glo, 72 h), Ba/F3 EGFR exon 20 FQEA Ins; details: read-out: BaF3 FQEA IC50
# T6 construct: expressed in transfected cells; host or cells: Ba/F3 (murine pro-B cells), retroviral transduction, puromycin selection, IL3-independent pool
# Outline: as §1
# [9] = molecular target: T7, EGFR exon 20 ASV Ins V769_D770 (Ba/F3 cells) (Homo sapiens, UniProt P00533, INS769ASV); test: Inhibitor activity on EGFR-dependent cell growth (CellTiter-Glo, 72 h), Ba/F3 EGFR exon 20 ASV Ins; details: read-out: BaF3 ASV IC50
# T7 construct: expressed in transfected cells; host or cells: Ba/F3 (murine pro-B cells), retroviral transduction, puromycin selection, IL3-independent pool
# Outline: as §1
# [10] = molecular target: T8, EGFR exon 20 SVD Ins D770_N771 (Ba/F3 cells) (Homo sapiens, UniProt P00533, INS770SVD); test: Inhibitor activity on EGFR-dependent cell growth (CellTiter-Glo, 72 h), Ba/F3 EGFR exon 20 SVD Ins; details: read-out: BaF3 SVD IC50
# T8 construct: expressed in transfected cells; host or cells: Ba/F3 (murine pro-B cells), retroviral transduction, puromycin selection, IL3-independent pool
# T8 sequence (P00533 with tags, fused parts or gaps INS770SVD): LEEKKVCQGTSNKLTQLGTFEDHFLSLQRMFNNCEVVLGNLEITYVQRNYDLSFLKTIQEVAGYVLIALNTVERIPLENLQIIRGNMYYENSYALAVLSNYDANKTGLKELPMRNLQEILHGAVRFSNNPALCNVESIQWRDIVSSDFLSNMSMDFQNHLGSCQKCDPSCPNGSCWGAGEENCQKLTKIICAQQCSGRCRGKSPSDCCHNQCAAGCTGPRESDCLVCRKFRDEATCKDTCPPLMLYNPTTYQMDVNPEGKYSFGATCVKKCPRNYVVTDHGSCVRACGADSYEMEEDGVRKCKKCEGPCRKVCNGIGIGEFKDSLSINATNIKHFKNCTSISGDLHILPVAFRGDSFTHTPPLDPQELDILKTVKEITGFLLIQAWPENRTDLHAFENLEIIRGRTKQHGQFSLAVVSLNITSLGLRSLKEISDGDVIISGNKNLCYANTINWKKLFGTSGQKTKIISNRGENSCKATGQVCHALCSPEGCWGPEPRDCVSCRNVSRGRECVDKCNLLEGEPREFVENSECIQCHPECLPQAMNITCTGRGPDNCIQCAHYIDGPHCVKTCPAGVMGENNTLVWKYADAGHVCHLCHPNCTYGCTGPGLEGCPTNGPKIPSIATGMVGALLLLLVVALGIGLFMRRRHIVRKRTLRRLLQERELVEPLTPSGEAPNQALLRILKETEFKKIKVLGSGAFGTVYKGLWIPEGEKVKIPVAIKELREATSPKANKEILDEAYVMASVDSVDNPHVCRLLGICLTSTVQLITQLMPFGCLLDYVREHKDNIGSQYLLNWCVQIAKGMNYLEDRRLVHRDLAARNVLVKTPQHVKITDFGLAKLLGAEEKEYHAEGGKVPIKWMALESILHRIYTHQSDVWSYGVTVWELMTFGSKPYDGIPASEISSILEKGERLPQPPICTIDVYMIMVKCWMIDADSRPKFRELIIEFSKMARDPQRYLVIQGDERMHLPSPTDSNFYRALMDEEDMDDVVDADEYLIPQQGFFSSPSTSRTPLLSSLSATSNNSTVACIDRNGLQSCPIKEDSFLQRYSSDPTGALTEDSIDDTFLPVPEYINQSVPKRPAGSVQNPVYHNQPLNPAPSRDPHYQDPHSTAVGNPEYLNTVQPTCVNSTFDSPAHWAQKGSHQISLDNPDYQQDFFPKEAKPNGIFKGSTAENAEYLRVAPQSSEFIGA
# Outline: as §1
# [11] = molecular target: T8, EGFR exon 20 SVD Ins D770_N771 (Ba/F3 cells); test: Inhibitor activity on EGFR phosphorylation (pEGFR AlphaLISA, 2 h), Ba/F3 EGFR exon 20 SVD Ins
# From the text: as §2, §3, §4, §5, §6, §7, §8, §9, §10, §11, §12, §13, §14, §15, §16
# [12] = molecular target: T7, EGFR exon 20 ASV Ins V769_D770 (Ba/F3 cells); test: Inhibitor activity on EGFR phosphorylation (pEGFR AlphaLISA, 2 h), Ba/F3 EGFR exon 20 ASV Ins; details: EGFR phosphorylation, AlphaLISA, 2 hours; read-out: ASV IC50 (pEGFR)
# Outline: as §17
# [13] = molecular target: T4, EGFR exon 20 NPG Ins D770_N771 (Ba/F3 cells); test: Inhibitor activity on EGFR phosphorylation (pEGFR AlphaLISA, 2 h), Ba/F3 EGFR exon 20 NPG Ins
# Outline: as §17
SMILES,IC50 (EGFR L858R (Ba/F3 cells) [1]) [nM],IC50 (EGFR L858R (Ba/F3 cells) [2]) [nM],IC50 [3] [nM],IC50 [4] [nM],IC50 (EGFR (CUTO14 cells)) [nM],IC50 [5] [nM],IC50 [6] [nM],IC50 [7] [nM],IC50 (EGFR WT (Ba/F3 cells)) [nM],IC50 [8] [nM],IC50 [9] [nM],IC50 [10] [nM],IC50 [11] [nM],IC50 [12] [nM],IC50 [13] [nM]
"COc1c(Cl)cccc1Nc1c(-c2ccncn2)[nH]c2c1C(=O)NCC2C[C@H]1COCCO1 (single isomer, unassigned) [Compound 527, (7R*)-3-[(3-chloro-2-methoxyphenyl)amino]-7-[(2S)-1,4-dioxan-2-ylmethyl]-2-(pyrimidin-4-yl)-1H,5H,6H,7H-pyrrolo[3,2-c]pyridin-4-one]",< 100,< 100,< 100,< 100,< 100,< 100,< 100,< 100,100 to 1000,–,–,–,–,–,–
"COc1c(F)cccc1Nc1c(-c2ccnc(C)n2)[nH]c2c1C(=O)NCC2C[C@@H]1COCCO1 (single isomer, unassigned) [Compound 604]",< 100,< 100,< 100,< 100,< 100,< 100,< 100,< 100,100 to 1000,< 100,< 100,< 100,–,–,–
"COc1c(F)cccc1Nc1c(-c2ccnc(C)n2)[nH]c2c1C(=O)NCC2C[C@H]1COCCO1 (single isomer, unassigned) [Compound 606]",< 100,< 100,< 100,< 100,< 100,< 100,< 100,< 100,100 to 1000,< 100,< 100,< 100,–,–,–
"COc1c(Cl)cccc1Nc1c(-c2ccnc(N)n2)[nH]c2c1C(=O)NCC2 [Compound 148, 2-(2-aminopyrimidin-4-yl)-3-((3-chloro-2-methoxyphenyl)amino)-1,5,6,7-tetrahydro-4H-pyrrolo[3,2-c]pyridin-4-one]",–,–,–,–,< 100,–,–,< 100,100 to 1000,100 to 1000,–,–,< 100,< 100,< 100
"C=CC(=O)N1CCC2(CC1)CNC(=O)c1c2[nH]c(-c2ccnc3ccc(OC)nc23)c1Nc1cccc(F)c1OC [Compound 160, 1-acryloyl-3′-((3-fluoro-2-methoxyphenyl)amino)-2′-(6-methoxy-1,5-naphthyridin-4-yl)-5′,6′-dihydrospiro[piperidine-4,7′-pyrrolo[3,2-c]pyridin]-4′(1′H)-one]",–,–,–,–,< 100,–,–,< 100,–,< 100,< 100,< 100,< 100,< 100,< 100
"COc1c(Cl)cccc1Nc1c(-c2ccncn2)[nH]c2c1C(=O)NC[C@H]2C[C@@H]1COCCO1 [Compound 568, (7R)-3-[(3-chloro-2-methoxyphenyl)amino]-7-[(2R)-1,4-dioxan-2-ylmethyl]-2-(pyrimidin-4-yl)-1H,5H,6H,7H-pyrrolo[3,2-c]pyridin-4-one]",< 100,< 100,< 100,< 100,< 100,< 100,< 100,< 100,100 to 1000,< 100,–,–,–,–,–
"COc1c(F)cccc1Nc1c(-c2ccncn2)[nH]c2c1C(=O)NC[C@H]2C[C@@H]1COCCO1 [Compound 569, (7R)-7-[(2R)-1,4-dioxan-2-ylmethyl]-3-[(3-fluoro-2-methoxyphenyl)amino]-2-(pyrimidin-4-yl)-1H,5H,6H,7H-pyrrolo[3,2-c]pyridin-4-one]",< 100,< 100,< 100,< 100,< 100,< 100,< 100,< 100,100 to 1000,< 100,< 100,< 100,–,–,–
"COc1c(Cl)cccc1Nc1c(-c2ccnc3c(N)noc23)[nH]c2c1C(=O)NCC2 [compound 524, 2-{3-amino-[1,2]oxazolo[4,5-b]pyridin-7-yl}-3-[(3-chloro-2-methoxyphenyl)amino]-1H,5H,6H,7H-pyrrolo[3,2-c]pyridin-4-one]",–,–,–,–,< 100,–,–,< 100,100 to 1000,–,< 100,< 100,< 100,< 100,< 100
COc1c(Cl)cccc1Nc1c(-c2ccncc2F)[nH]c2c1C(=O)NC[C@]21CCN(CC(F)F)C1 [compound 821],< 100,< 100,< 100,< 100,–,< 100,< 100,< 100,100 to 1000,< 100,< 100,< 100,–,–,–
"CCOc1ncc2nccc(-c3[nH]c4c(c3Nc3cccc(Cl)c3OC)C(=O)NCC4)c2n1 [compound 827, 3-[(3-chloro-2-methoxyphenyl)amino]-2-{2-ethoxypyrido[3,2-d]pyrimidin-8-yl}-1H,5H,6H,7H-pyrrolo[3,2-c]pyridin-4-one]",< 100,< 100,< 100,< 100,–,< 100,< 100,< 100,< 100,< 100,< 100,< 100,–,–,–
